Measurements from patent US8551951B2, “Pharmaceutical preparations and methods for inhibiting tumors” (Aenorasis SA Pharmaceuticals and Medical Devices, priority 2000, dated 2013).

Assays:
[1] = system: Dunning Mat Ly Lu tumors; assay: Studies MLL-5 and MLL-6, Mat Ly Lu tumor implanted in Copenhagen rats; assay type: in vivo; details: Doxorubicin 5000 μg/kg single bolus i.v. on day 3 p.t.i
Procedure: Anti-tumor efficacy evaluation of PCK3145 against Mat Ly Lu (MLL) tumor implanted in Copenhagen rats was performed. (Protocol based on S. Garde et al.; The Prostate, 22: 225-233, 1993). Mat LyLu tumor cells were harvested in mid-log phase from the culture flasks by trypsinization, were centrifuged at 1200 rotation per minute (rpm) and washed three timed with Hanks balanced salt solution (HBSS). Following washing, cells were counted and adjusted to a concentration of 5×10^6 cells/ml in HBSS. A 0.1 ml volume of tumor cell inoculum containing 5×10^5 cells was administered subcutaneously into the flank region of each rat. Treatment started at day 3 post-tumor implantation (p.t.i) by local subcutaneous injection (i.e., in the shaved back area just below tumor implantation site) of various PCK3145 concentrations. This treatment was continued daily for 16 days. Experiments were terminated 24 hours after the last treatment. Tumor measurements were taken at days 7, 9, 11, 14, 16 and 18. Tumor volumes are calculated according to formula (a×b^2×0.5), where a—is the length of the long diameter, b—width of the perpendicular small diameter. At day 19 tumors of individual rats were excised and weighed.
Study No: MLL-5 illustrates the efficacy of PCK3145 (SEQ ID NO: 5) compared with polypeptide 7-21 (SEQ ID NO: 4) and polypeptide 76-94 (SEQ ID NO: 6) in tumor growth retardation in Copenhagen rats, which have received Mat Ly Lu implants. Mice were separated in different groups, each receiving various amount of PCK3145 (SEQ ID NO: 5) or control reagents. PCK3145 was injected through the subcutaneous route. The different groups used in these experiments are illustrated in table 8 below. Each group contained 8 mice.
Study No: MLL-6 illustrates the efficacy of PCK3145 (SEQ ID NO: 5) in tumor growth retardation in Copenhagen rats, which have received Mat Ly Lu implants. Mice were separated in different group each receiving various amounts of PCK3145 (SEQ ID NO: 5) or control reagents. PCK3145 was injected through the subcutaneous route. The different groups used in these experiments are illustrated in table 9 below. Each group contained 8 mice. Doxorubicin was administered as single bolus via intra-venous injection on day 3 p.t.i.

[2] = system: human PC-3 tumor; assay: Studies PC3-6 and PC3-12, human PC-3 prostate cancer nude mouse xenograft model; assay type: in vivo, nude mice; details: Doxorubicin 10000 μg/kg single bolus i.v. on days 3 and 11 p.t.i
Source text: Studies PC3-6 and PC3-12 (FIGS. 26-27) are consecutive group experiments designed to characterize the in vivo activity of PCK3145 in the human PC-3 prostate cancer nude mouse xenograft model and to explore relationships between dose, route and schedule of administration and the efficacy parameters of tumor growth (volume).
PC-3 cells harvested in mid-log phase were inoculated at 5×10^6 cells per mice via the subcutaneous route in the mice's back area. Tumors grown from this inoculum were excised at approximately day 32 to 35 post-tumor implantation (p.t.i) when tumor volume reached 200-300 mm^3 (i.e., cu mm). The necrotic tissue was removed and the viable tumor mass cut into small pieces (approximately 1 to 3 mm^3) were implanted SC in the flank region at two opposite sites of the mouse. Treatment with various concentrations of PCK3145 was initiated at day 3 post-tumor implantation (p.t.i) and was continued daily for 21 days. Subcutaneous injections were done below tumor growth sites. Intra-peritoneal injections were performed in the abdominal region. Intra-venous injections were performed via the lateral tail vein. The experiment was terminated 24 hours after the last treatment. Tumor measurements were taken at Days 11, 14, 16, 18, 20, 22 and 24 post-tumor implantation (p.t.i). Tumor volumes were calculated according to formula (a×b^2×0.5), where a—is the length of the long diameter, and b—is the width of the perpendicular small diameter.
Study No: PC3-6 illustrates the efficacy of PCK3145, injected subcutaneously, in tumor growth retardation in Nude mice, which have received PC-3 implants. Mice were separated in different group each receiving various amounts of PCK3145 (SEQ ID NO: 5) or control reagents. The different groups used in these experiments are illustrated in table 6 below. Each group contained 10 mice. Doxorubicin was administered as single bolus intra-venous injection on days 3 and 11 post-tumor implantation (p.t.i).
Study No: PC3-12 illustrates the efficacy of PCK3145 in tumor growth retardation in Nude mice, which have received PC-3 implants. Mice were separated in different group each receiving various amounts of PCK3145 (SEQ ID NO: 5) or control reagents. PCK3145 was injected either through intra-venous or intra-peritoneal route. The different groups used in these experiments are illustrated in table 7 below. Each group contained 9 mice.

[3] = system: Mat Ly Lu (MLL) tumor; assay: Study MLL-1, Mat LyLu tumor implanted in nude mice; assay type: in vivo; details: Doxorubicin 5 mg/kg i.v. single bolus on day 3; p=0.006
Procedure: (§1) Studies MLL-1 and MLL-2 were performed as follows; on day 0, male Copenhagen rats were injected subcutaneously with 5×10^5 Mat LyLu cells per rat. These cells were derived from cultures of Mat LyLu cell line grown in RPMI media containing 10% (v/v) of fetal calf serum in logarithmic phase of growth. Cells were harvested from the culture flasks by trypsinization, were centrifuged at 1200 rotation per minute (rpm) and washed three timed with Hanks balanced salt solution (HBSS). Following washing, cells were counted and adjusted to a concentration of 5×10^6 cells/ml in HBSS. A 0.1 ml volume of tumor cell inoculum containing 5×10^5 cells was administered subcutaneously into the flank region of each rat. Three days after tumor cell implantation (i.e., inoculation), animals were treated daily by a subcutaneous injection of the desired polypeptide until day 13.
Experiments illustrated in FIG. 12 show the anti-tumor efficacy validation of rHuPSP94 against Mat LyLu (MLL) tumor implanted in nude mice (Protocol based on S. Garde et al.; The Prostate, 22: 225-233, 1993).
For study MLL-1 (FIG. 12), tumor-implanted nude mice were separated in different groups, each receiving various amount of rHuPSP94 or control reagents. The different groups used in these experiments are illustrated below. Each group contained 8 mice.

[4] = system: PC-3 cells; assay: DNA fragmentation assay (DNA ladder, apoptosis); assay type: cell-based, human
Procedure: Cell apoptosis result in DNA fragmentation can be evaluated by the presence of a DNA ladder visualized when DNA is run on a 1.2% agarose gel. DNA ladder assay (apoptosis assay) was performed following exposure of PC-3 to various concentrations of the polypeptides for 72 hours. The polypeptides that were used in this particular experiment are polypeptide 7-21 (SEQ ID NO: 4), polypeptide PCK3145 (SEQ ID NO: 5) and polypeptide 76-94 (SEQ ID NO: 6). […] This effect was especially evident following treatment with PCK3145 (SEQ ID NO: 5), which is illustrated by FIG. 7. Lane 1 of the gel illustrated in FIG. 7 represents a lambda HindIII digest standard.
Apoptosis of PC-3 cells, following a 72 hours exposure to PCK3145 at 500 μg/ml concentration, was evaluated in supplemented media by DNA fragmentation assay. Doxorubicin was used as a reference positive control. Untreated cells and PCK3145-treated cells were harvested and the DNA was isolated. Isolated DNA was run on a 1.2% agarose gel containing Ethidium Bromide (EtBr). […] Lane 1 of the gel illustrated in FIG. 25 represents the DNA marker (100 base pair DNA ladder). Lane 2 of the gel illustrated in FIG. 25 represents a control of untreated PC-3 cells.

[5] = system: Mat Ly Lu (MLL) tumor; assay: Study MLL-2, Mat Ly Lu tumor implanted in SCID mice; assay type: in vivo; details: Doxorubicin 5 mg/kg i.v. single bolus on day 3; p=0.002
Procedure: as §1
Experiments illustrated in study MLL-2 show the anti-tumor efficacy validation of rHuPSP94 against Mat Ly Lu (MLL) tumor implanted in severe combined immunodeficiency (SCID) mice (Protocol based on S. Garde et al.; The Prostate, 22: 225-233, 1993).
For study MLL-2 (FIG. 13), tumor-implanted Scid mice were separated in different groups each receiving various amounts of rHuPSP94 or control reagents. The different groups used in these experiments are illustrated below. Each group contained 8 mice.

COc1cccc2c1C(=O)c1c(O)c3c(c(O)c1C2=O)C[C@@](O)(C(=O)CO)C[C@@H]3O[C@H]1C[C@H](N)[C@H](O)[C@H](C)O1 [Doxorubicin, reference compound]
reduction in tumor volumes, study MLL-6 [1]: over 80%
tumor growth (volume), study PC3-6 [2]: highly significant anti-tumor therapeutic effect
tumor weight reduction [3]: 48%
DNA laddering effect (FIG. 25 lane 3) ([4]; 2 μg/ml): DNA laddering effect
DNA laddering effect (FIG. 7 lane 2) ([4]; doxorubicin-treated cells): DNA laddering effect
tumor weight reduction [5]: 82%
